# Assay results as given in US20050049210A1, “Methods for the controlled delivery of pharmacologically active compounds” (IDEXX Laboratories, Inc., priority 2003, published 2005).
# What was measured:
# [1] = Solubility of fatty acid salt in water immiscible solvent; type: physicochemical; details: amine group neutralized with linoleic acid, in isopropyl myristate
# Description: Oxytetracycline has one tertiary amine group, and the hydrochloride salt of oxytetracycline is readily soluble in water. Adding one mole of fatty acid to one mole of oxytetracycline creates a salt that is more soluble than unmodified oxytetracycline in isopropyl myristate.
# When the two amine groups of tilmicosin are neutralized with any of several fatty acids (such as, for example, decanoic C10, lauric C12, myristic C14, palmitic C16, stearic C18, oleic C18, elaidic C18, linoleic C18, and erucic C22, sebacic, dodecanedioic), the resulting salt is soluble in pharmaceutically-acceptable water immiscible solvents. When a formulation of the salt (tilmicosin-linoleic acid) is sealed in a dialysis cassette and place in saline, the tilmicosin salt remains a cohesive mass, and tilmicosin is slowly released from the bag. The rate of release is a function of the chain length of the fatty acid, the solvent, and the tilmicosin-fatty acid salt concentration.
# Roxithromycin is effective against a broad range of bacteria, and is used for the treatment of respiratory diseases in cattle. The amine group of roxithromycin can be neutralized with linoleic acid in isopropyl myristate, and a clear solution is obtained at 200 mg/ml.
# Terbinafine is a specific inhibitor of squaline epoxidase, a key enzyme in fungal ergosterol biosynthesis. […]
# [2] = Solubility of salt in water; type: physicochemical; details: linoleic acid salt
# Description: Terbinafine is a specific inhibitor of squaline epoxidase, a key enzyme in fungal ergosterol biosynthesis. The amine group of terbinafine was neutralized with linoleic acid in ispropyl myristate, resulting in a clear solution at 150 mg/ml.
# dogs = details: tilmicosin in conventional form; cited from earlier work
Compound,concentration at which a clear solution is obtained [1],solubility of the resulting salt in water [2],dose normally lethal in dogs (dogs)
"CC[C@H]1OC(=O)[C@H](C)[C@@H](OC2CC(C)(OC)C(O)C(C)O2)[C@H](C)[C@@H](OC2OC(C)CC(N(C)C)C2O)[C@](C)(O)C[C@@H](C)/C(=N\OCOCCOC)[C@H](C)[C@@H](O)[C@]1(C)O (stereo partly shown) [roxithromycin, Roxithromycin]",200000 µg/mL,–,–
"CN(C/C=C/C#CC(C)(C)C)Cc1cccc2ccccc12 [terbinafine, Terbinafine]",150000 µg/mL,highly insoluble,–
Tilmicosin,–,–,50 mg/kg
